{
  "source": "patent US20200289667A1",
  "about": "“Targeting Macrophages to Modulate Electrical Conduction in the Heart” (The General Hospital Corporation, priority 2016, published 2020)",
  "type_in_all_cases": "in vivo, mouse",
  "key": {"AV block": {"test_system": "AV block", "assay": "Surface ECG of Cd11b^DTR mice with AV block after intravenous drug administration", "conditions": "Cd11b^DTR mice with second and third degree AV block; intravenous (atropine 1 mg/kg, epinephrine 2 mg/kg, isoproterenol 20 mg/kg)", "description": "(§1) Mice were anesthetized as described above and surface ECG was recorded using subcutaneous electrodes connected to the Animal Bio amplifier and PowerLab station (AD Instruments). The ECG channel was filtered between 0.3 and 1000 Hz and analyzed using LabChart Pro software. Atropine (1 mg/kg), epinephrine (2 mg/kg) or isoproterenol (20 mg/kg) were administered intravenously, and changes were examined before and after injection."}, "AV node macrophages": {"test_system": "AV node macrophages", "assay": "Flow cytometric quantification of AV node macrophages after depletion", "description": "(§2) Mice were put into parabiosis using either C57BL/6 and Cx3cr1^GFP/+ or Cd11b^DTR and Cx3cr1^GFP/+ mice as described previously (12). Tamoxifen was given as a solution in corn oil (Sigma) to Cx3cr1^wt/CreER ChR2^fl/fl or Cx3cr1^wt/CreER Cx43^fl/fl mice by intraperitoneal injection. Animals received 5 doses of 2 mg of tamoxifen with a separation of 24 hours between doses. Cx3cr1^wt/CreER ChR2^wt/fl and Cx3cr1^wt/CreER Cx43^fl/fl mice were analyzed 2 and 7 days post-tamoxifen treatment, respectively. Macrophage depletion was achieved by a single intraperitoneal injection of diphtheria toxin (DT, 25 ng/g body weight) in Cd11b^DTR mice (12). C57BL/6 mice injected with DT were used as controls. Clodronate liposomes were kindly provided by Dr. Kory J. Lavine and contained 18 mg of clodronate per mL of liposomes. Depletion studies were performed by intraperitoneal injection of 100 μL/30 g mouse (13).\nPeripheral blood for flow cytometric analysis was collected by retro-orbital bleeding using heparinized capillary tubes (BD Diagnostics) and red blood cells were lysed with 1× red blood cell lysis buffer (BioLegend). To determine electrolyte levels, blood was collected by cardiac puncture and electrolytes were measured on serum with EasyLyte PLUS analyzer (Medica). For organ harvest, mice were perfused through the LV with 10 mL of ice-cold PBS. […]"}, "AV node conduction": {"test_system": "AV node conduction", "assay": "AV node conduction by ECG telemetry, surface ECG and EP study after macrophage depletion", "description": "as §2\nEP studies were performed under general anaesthesia induced by administering 5% isoflurane driven by an oxygen source into an induction chamber. Anaesthesia was subsequently maintained with 1-2% isoflurane in 95% O2. For EP study, an octapolar catheter (EPR-800) was inserted into the right jugular vein and positioned in the right atrium and ventricle. Programmed electrical stimulation was performed using a standard protocol with 120 ms and 100 ms drive trains and single extrastimuli to measure function of the AV node and the conduction properties of atrial and ventricular tissue. The Wenckebach cycle length was measured by progressively faster atrial pacing rates. Retrograde (VA) conduction cycle length was measured by progressively slower ventricular pacing rates. Sinus node function was determined by measuring the sinus node recovery time (SNRT) following 30 seconds of pacing at three cycle lengths (120, 100 and 80 ms). SNRT was divided by the basic cycle length to adjust for the intrinsic heart rate.\nContinuous ambulatory ECG telemetry was performed by implanting an ETA-F10 transmitter during general anaesthesia with isoflurane. The transmitter was implanted in the abdomen and the leads were tunneled subcutaneously to the upper right and lower left chest resulting in a lead II position. Telemetry data was recorded continuously via a receiver placed under the mouse cage. Data analysis was performed using LabChart Pro software.\nas §1"}},
  "data": [
    {"compound": "CN1[C@@H]2CC[C@H]1C[C@@H](OC(=O)C(CO)c1ccccc1)C2", "note": "(stereo partly drawn) [atropine]", "values": [
      {"measurement": "attenuation of AV block", "setting": "AV block", "result": "did not attenuate"}
    ]},
    {"compound": "CNC[C@H](O)c1ccc(O)c(O)c1", "note": "[epinephrine]", "values": [
      {"measurement": "attenuation of AV block", "setting": "AV block", "result": "did not attenuate"}
    ]},
    {"compound": "CC(C)NCC(O)c1ccc(O)c(O)c1", "note": "(stereo not drawn) [isoproterenol]", "values": [
      {"measurement": "attenuation of AV block", "setting": "AV block", "result": "did not attenuate"}
    ]},
    {"compound": "diphtheria toxin [DT]", "values": [
      {"measurement": "number of AV node macrophages", "setting": "AV node macrophages; C57BL/6 control mice, three days after DT injection", "result": "did not alter"},
      {"measurement": "time of maximum depletion of AV node macrophages", "setting": "AV node macrophages; Cd11b^DTR mice, single intraperitoneal dose of 25 ng/g body weight", "result": "three"},
      {"measurement": "induction of AV block", "setting": "AV node conduction; C57BL/6 control mice, surface ECG", "result": "did not induce AV block"},
      {"measurement": "progression of AV block", "setting": "AV node conduction; Cd11b^DTR mice, ECG telemetry, after DT injection", "result": "progressively evolved into second and third degree AV block"},
      {"measurement": "onset of first degree AV block (all mice)", "setting": "AV node conduction; Cd11b^DTR mice, ECG telemetry, single dose 25 ng/g", "result": "one"},
      {"measurement": "induction of AV block", "setting": "AV node conduction; Cx3cr1^GFP/+ mice joined in parabiosis with Cd11b^DTR mice, surface ECG three days after DT", "result": "did not induce AV block"}
    ]}
  ]
}
